The numbers were not newly measured in US11610144B2, “Biosignature discovery for substance use disorder using statistical learning” (BioRealm LLC, priority 2018, dated 2023), which cites them from elsewhere.

The subject of one data set is smokers. Conditions: meta-analyses of RCTs.
In data set [1] the test system is smokers, slow and normal nicotine metabolizers. Conditions: NMR from direct biochemical measurement.

“Also recorded” adds a separate entry of the source.

On to `CC(NC(C)(C)C)C(=O)c1cccc(Cl)c1` (stereo not drawn) [BUP, bupropion], for which the “smoking cessation efficacy compared with placebo” value in the data set on smokers was “significantly more effective than placebo”.
As for `c1cnc2cc3c(cc2n1)[C@@H]1CNC[C@H]3C1` [VAR, varenicline], the “smoking cessation efficacy compared with placebo” value with smokers was “significantly more effective than placebo”. In addition, the “response to treatment, VAR versus NRT” value in data set [1] is reported as “responded significantly better than those randomized to NRT; also recorded: responded significantly better to VAR than to NRT”.
